Legend:
[1] = Binding affinity to Escherichia coli K12 stem-loop region L2-10 RNA aptamers using luminescence spectrometer by anisotropy technique
[2] = Binding affinity to Escherichia coli K12 stem-loop region L2-11 RNA aptamers using luminescence spectrometer by anisotropy technique
[3] = Binding affinity to Escherichia coli K12 stem-loop region L2-12 RNA aptamers using luminescence spectrometer by anisotropy technique
[4] = Binding affinity to Escherichia coli K12 stem-loop region L2-12 RNA aptamers using BIAcore 3000 instrument
[5] = Binding affinity to Escherichia coli K12 stem-loop region L2-11 RNA aptamers using BIAcore 3000 instrument

Structure (SMILES) | Kd [1] | Kd [2] | Kd [3] | Kd [4] | Kd [5]
CC(=O)NC[C@@H]1CN(c2ccc(N3CCN(C(=O)CSCCCCCCSC[C@@H]4O[C@H](O[C@@H]5[C@@H](O)[C@H](N)C[C@H](N)[C@H]5O[C@H]5O[C@H](CN)[C@@H](O)[C@H](O)[C@H]5N)[C@@H](O)[C@H]4O[C@@H]4O[C@H](CN)[C@H](O)[C@@H](O)[C@@H]4N)CC3)c(F)c2)C(=O)O1 | 90 nM | 260 nM | 66 nM | 670 nM | 960 nM
NC[C@@H]1O[C@H](O[C@H]2[C@@H](O)[C@H](O[C@@H]3[C@@H](O)[C@H](N)C[C@H](N)[C@H]3O[C@H]3O[C@H](CN)[C@@H](O)[C@H](O)[C@H]3N)O[C@@H]2CO)[C@H](N)[C@@H](O)[C@@H]1O (stereo in doubt) [FRAMYCETIN] | 308 nM | 313 nM | 320 nM | 2300 nM | 6300 nM

From ChEMBL document CHEMBL1137519, “Elucidation of the RNA target of linezolid by using a linezolid-neomycin B heteroconjugate and genomic SELEX” (Bioorg Med Chem, 2007)
